# Measurements taken from US7723523B2, “Tetrahydropyridothiophenes” (4SC AG, priority 2004, dated 2010).
# Experiments:
# [1] = test system: RKO (RKOp27) human colon adenocarcinoma cells; test: Alamar Blue cell viability assay, anti-proliferative/cytotoxic activity on proliferating RKOp27 cells; format: cell-based; details: absence of Ponasterone A, 72 hours incubation, read-out: IC50 RKO p27 proliferating
# Procedure, shortened: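 IC50 values come from concentration-effect curves of Alamar Blue fluorescence (544/590 nm), relative to untreated controls set at 100%. Cells were RKOp27, seeded at 4000/well in DMEM with 10% FCS and exposed from 24 h post-seeding for 72 h (37 °C, 5% CO2) to semi-log dilutions, each run in quadruplicate.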
# [2] = test system: RKO colon adenocarcinoma cells (RKOp27) arrested by expression of ectopic p27Kip1; test: Alamar Blue cell viability assay on RKOp27 cells arrested by Ponasterone A-induced p27Kip1 (cell cycle specific mode of action); format: cell-based; details: Homo sapiens, RKOp27, 72 h, cells arrested by p27Kip1 induced with 10 μM Ponasterone A, 72 hours incubation, read-out: IC50 RKO p27 arrested
# Procedure, shortened: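 Viability measured by Alamar Blue fluorescence (ex 544, em 590 nm) after 72 h, 37 °C compound exposure in quadruplicate, normalized to untreated cells as 100%. Cells were p27Kip1-arrested RKOp27, induced with 10 μM Ponasterone A at seeding; compound added 24 h later.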
Structure (SMILES),IC50 [2],IC50 [1]
"CCOC(=O)N1CCc2c(sc(NC(=O)/C=C/c3ccco3)c2C#N)C1 [Example 10, 3-Cyano-2-((E)-3-furan-2-yl-allanoylamino)-4,7-dihydro-5H-thieno[2,3-c]pyridine-6-carboxylic acid ethyl ester]",> 100 µM,≤ 2 µM
"COCCOC(=O)N1CCc2c(sc(NC(=O)/C=C/c3ccccc3Cl)c2C#N)C1 [Example 142, 2-[(E)-3-(2-Chloro-phenyl)-allanoylamino]-3-cyano-4,7-dihydro-5H-thieno[2,3-c]pyridine-6-carboxylic acid 2-methoxy-ethyl ester]",≥ 100 µM,≤ 2 µM
"COC(=O)CCOC(=O)N1CCc2c(sc(NC(=O)/C=C/c3cccnc3)c2C#N)C1 [Example 162, 3-Cyano-2-((E)-3-pyridin-3-yl-allanoylamino)-4,7-dihydro-5H-thieno[2,3-c]pyridine-6-carboxylic acid 2-methoxycarbonyl-ethyl ester]",≥ 100 µM,≤ 2 µM
"N#Cc1c(NC(=O)/C=C/c2ccco2)sc2c1CCN(C(=O)OCCc1ccccn1)C2 [Example 243, 3-Cyano-2-((E)-3-furan-2-yl-allanoylamino)-4,7-dihydro-5H-thieno[2,3-c]pyridine-6-carboxylic acid 2-pyridin-2-yl-ethyl ester]",≥ 100 µM,≤ 2 µM
"CCOC(=O)N1CCc2c(sc(NC(=O)/C=C/c3cccc(Cl)c3F)c2C#N)C1 [Example 61, 3-Cyano-2-[(E)-3-(3-chloro-2-fluoro-phenyl)-allanoylamino]-4,7-dihydro-5H-thieno[2,3-c]pyridine-6-carboxylic acid ethyl ester]",≥ 100 µM,≤ 2 µM
"N#Cc1c(NC(=O)/C=C/c2cccnc2)sc2c1CCN(C(=O)OCc1ccccn1)C2 [Example 149, 3-Cyano-2-((E)-3-pyridin-3-yl-allanoylamino)-4,7-dihydro-5H-thieno[2,3-c]pyridine-6-carboxylic acid pyridin-2-ylmethyl ester]",≥ 100 µM,≤ 2 µM
"N#Cc1c(NC(=O)/C=C/c2ccccc2)sc2c1CCN(C(=O)CCc1cccnc1)C2 [Example 185, (E)-N-[3-Cyano-6-(3-pyridin-3-yl-propanoyl)-4,5,6,7-tetrahydro-thieno[2,3-c]pyridin-2-yl]-3-phenyl-acrylamide]",≥ 100 µM,≤ 2 µM
"CCOc1ccccc1/C=C/C(=O)Nc1sc2c(c1C#N)CCN(C(=O)OCCc1ccccn1)C2 [Example 239, 3-Cyano-2-[(E)-3-(2-ethoxy-phenyl)-allanoylamino]-4,7-dihydro-5H-thieno[2,3-c]pyridine-6-carboxylic acid 2-pyridin-2-yl-ethyl ester]",≥ 100 µM,≤ 2 µM
"N#Cc1c(NC(=O)/C=C/c2ccco2)sc2c1CCN(C(=O)CCc1cccnc1)C2 [Example 229, (E)-N-[3-Cyano-6-(3-pyridin-3-yl-propanoyl)-4,5,6,7-tetrahydro-thieno[2,3-c]pyridin-2-yl]-3-furan-2-yl-acrylamide]",≥ 100 µM,≤ 2 µM
"COCCOCCOC(=O)N1CCc2c(sc(NC(=O)/C=C/c3ccccc3)c2C#N)C1 [Example 129, 3-Cyano-2-((E)-3-phenyl-allanoylamino)-4,7-dihydro-5H-thieno[2,3-c]pyridine-6-carboxylic acid 2-(2-methoxy-ethoxy)-ethyl ester]",≥ 100 µM,≤ 2 µM
"CCOc1ccccc1/C=C/C(=O)Nc1sc2c(c1C#N)CCN(C(=O)COCCOC)C2 [Example 217, (E)-N-{3-Cyano-6-[2-(2-methoxy-ethoxy)-ethanoyl]-4,5,6,7-tetrahydro-thieno[2,3-c]pyridin-2-yl}-3-(2-ethoxy-phenyl)-acrylamide]",≥ 100 µM,≤ 2 µM
"CCOC(=O)N1CCc2c(sc(NC(=O)/C=C/c3csc4ccccc34)c2C#N)C1 [Example 71, 2-((E)-3-Benzo[b]thiophen-3-yl-allanoylamino)-3-cyano-[4,7-d]hydro-5H-thieno[2,3-c]pyridine-6-carboxylic acid ethyl ester]",≥ 100 µM,≤ 2 µM
"CCOC(=O)CC(=O)N1CCc2c(sc(NC(=O)/C=C/c3ccccc3)c2C#N)C1 [Example 176, 3-[3-Cyano-2-((E)-3-phenyl-allanoylamino)-4,7-dihydro-5H-thieno[2,3-c]pyridin-6-yl]-3-oxo-propionic acid ethyl ester]",≥ 100 µM,≤ 2 µM
"COc1ccccc1/C=C/C(=O)Nc1sc2c(c1C#N)CCN(C(=O)CCc1cccnc1)C2 [Example 206, (E)-N-[3-Cyano-6-(3-pyridin-3-yl-propanoyl)-4,5,6,7-tetrahydro-thieno[2,3-c]pyridin-2-yl]-3-(2-methoxy-phenyl)-acrylamide]",≥ 100 µM,≤ 2 µM
"CCOC(=O)N1CCc2c(sc(NC(=O)/C=C/c3cccc(OC)c3OCC)c2C#N)C1 [Example 96, 3-Cyano-2-[(E)-3-(2-ethoxy-3-methoxy-phenyl)-allanoylamino]-4,7-dihydro-5H-thieno[2,3-c]pyridine-6-carboxylic acid ethyl ester]",≥ 100 µM,≤ 2 µM

# Second part, led by results:
IC50 [2],Structure (SMILES),IC50 [1]
≥ 100 µM,"CCOC(=O)N1CCc2c(sc(NC(=O)/C=C/c3ccccc3O)c2C#N)C1 [Example 95, 3-Cyano-2-[(E)-3-(2-hydroxy-phenyl)-allanoylamino]-4,7-dihydro-5H-thieno[2,3-c]pyridine-6-carboxylic acid ethyl ester]",≤ 2 µM
≥ 100 µM,"N#Cc1c(NC(=O)/C=C/c2ccco2)sc2c1CCN(C(=O)Cc1ccccn1)C2 [Example 227, (E)-N-[3-Cyano-6-(2-pyridin-2-yl-ethanoyl)-4,5,6,7-tetrahydro-thieno[2,3-c]pyridin-2-yl]-3-furan-2-yl-acrylamide]",≤ 2 µM
> 100 µM,"CCSC(=O)N1CCc2c(sc(NC(=O)/C=C/c3cccnc3)c2C#N)C1 [Example 36, 3-Cyano-2-((E)-3-pyridin-3-yl-allanoylamino)-4,7-dihydro-5H-thieno[2,3-c]pyridine-6-carbothioic acid S-ethyl ester]",≤ 2 µM
≥ 100 µM,"CC(=O)NCCOC(=O)N1CCc2c(sc(NC(=O)/C=C/c3ccccc3)c2C#N)C1 [Example 134, 3-Cyano-2-((E)-3-phenyl-allanoylamino)-4,7-dihydro-5H-thieno[2,3-c]pyridine-6-carboxylic acid 2-acetylamino-ethyl ester]",≤ 2 µM
≥ 100 µM,"CCOC(=O)N1CCc2c(sc(NC(=O)/C=C/c3sccc3C)c2C#N)C1 [Example 75, 3-Cyano-2-[(E)-3-(3-methyl-thiophen-2-yl)-allanoylamino]-4,7-dihydro-5H-thieno[2,3-c]pyridine-6-carboxylic acid ethyl ester]",≤ 2 µM
≥ 100 µM,"COC(=O)c1ccc(OC(=O)N2CCc3c(sc(NC(=O)/C=C/c4cccnc4)c3C#N)C2)cc1 [Example 151, 3-Cyano-2-((E)-3-pyridin-3-yl-allanoylamino)-4,7-dihydro-5H-thieno[2,3-c]pyridine-6-carboxylic acid 4-methoxycarbonyl-phenyl ester]",≤ 2 µM
≥ 50 µM,"CCOC(=O)N1CCc2c(sc(NC(=O)/C=C/c3ccccc3N3CCOCC3)c2C#N)C1 [Example 88, 3-Cyano-2-[(E)-3-(2-morpholin-4-yl-phenyl)-allanoylamino]-4,7-dihydro-5H-thieno[2,3-c]pyridine-6-carboxylic acid ethyl ester]",≤ 0.5 µM
